Laboratory results published in US5198433A, “Lactamimides as calcium antagonists” (Merrell Dow Pharmaceuticals Inc., priority 1992, dated 1993).

How the values were obtained:
adenylate cyclase = conditions: a number of tissues; cited from earlier work
[1] = tested on: isolated guinea pig hearts; conditions: cited from earlier work
calcium currents = conditions: potency compared with diltiazem; cited from earlier work
[2] = target: T1, [^3 H]nitrendipine binding to rat heart membranes (calcium ion-channel protein) (Rattus norvegicus, UniProt P22002); assay: [^3 H]Nitrendipine binding assay (enhancement of binding to rat heart membranes); design: species or system rat (male Sprague-Dawley); conditions: ligand 0.1 nM, mean ± SEM; for activity at 1 µM: 10^-6 M; for activity at 0.1 µM: 10^-7 M
T1 construct: Membranes were prepared from the hearts of male Sprague-Dawley rats; from tissue; host or cells: heart membranes of male Sprague-Dawley rats
Procedure: Membranes were prepared from the hearts of male Sprague-Dawley rats and [^3 H]nitrendipine binding was conducted as described in detail by H. R. Lee, et al., J. Pharmacol Exp. Ther. 233:611-616, (1985), as modified by F. J. Ehlert, et al., Biochem. Biophys. Rec. Common. 104:937-943, (1982). The ability of compounds tested at 10^-6 and 10^-7 M to enhance [^3 H]nitredepine binding was taken as indicative of diltiazem-like calcium antagonistic properties.
Values are the mean ± SEM of single experiments run in triplicate at
the concentrations of drugs indicated. Ligand concentration was 0.1 nM an
control specific binding was 49.6 ± 1.7 fmol/mg protein.

[3] = tested on: [3H]nitrendipine binding in rat cerebral cortical and cardiac homogenates; conditions: cited from earlier work
[4] = target: T2, K^+ -depolarized guinea pig ileum or taenia (Cavia porcellus); assay: Antagonism of Ca^++ -induced contractions of K^+ -depolarized guinea pig taenia or ileum; type: cell-based; conditions: FIG. 6; 40 mM K^+ -depolarized guinea pig ileum
T2 construct: pieces of ileum, 2 cm in length, from male guinea pigs (200-400 g) were set up in isolated organ baths; from tissue; host or cells: strips of taenia from the caecum or pieces of ileum of male guinea pigs
Procedure: Strips of taenia from the caecum or pieces of ileum, 2 cm in length, from male guinea pigs (200-400 g) were set up in isolated organ baths in Ca^++ -free K^+ Tyrode's solution (mM NaCl 137, KCl 40, NaH2 PO4 0.4, NaHCO3 11.9, glucose 5.5) and gassed with 95% O2, 5% CO2 at 37° C. Contractions were measured with isotonic transducers with a 1 g load. Cumulative dose-response curves were obtained. Tissues were then washed and incubated with the compounds for 20-25 minutes and then Ca^++ concentration response curves re-established. […] Dose ratios were determined graphically at ED50 values from the Ca^++ dose-response curve and Schild plots were constructed to determine pA2 value using inverse regression line analysis. Alternatively, when only one concentration of an antagonist was used, pA2 values were calculated according to the method of J. M. Van Rossum, Arch. Int. Pharmacodyn Ther. 143: 299-330 (1963).

[5] = target: [^3 H]d-cis-diltiazem binding to rat whole brain membranes (calcium ion-channel protein); assay: [^3 H]d-cis-Diltiazem binding assay (displacement from rat whole brain membranes); design: species or system rat (male Sprague-Dawley); conditions: for IC50: ligand […]
Procedure: The whole brain from male Sprague-Dawley rats (200-300 g) was dissected and homogenized in cold 50 mM Tris-HCl buffer (pH 7.4) for 2 x 30 second periods by Polytron (Brinkmann, setting No. 5). The homogenate was washed 2 times (48,000 ×g for 10 minutes, 4° C.) with intermittent resuspension of the pellet in fresh buffer. The final pellet was resuspended to an original tissue concentration of 100 mg/ml in Tris-HCl buffer. […] The reaction was terminated by rapid filtration under a vacuum through 0.05% polyethylenimine-pretreated Whatman GF/B glass fiber filters. Filters were immediately washed 2 times with 4 ml of cold Tris-HCl buffer. Pretreatment of the filters with 0.05% polyethylenimine served to eliminate [^3 H]d-cis-diltiazem binding to the filter. The filters were dried and the radioactivity in the filters was extracted overnight in scintillation fluid.

T1 sequence (P22002 whole entry, other chains not shown): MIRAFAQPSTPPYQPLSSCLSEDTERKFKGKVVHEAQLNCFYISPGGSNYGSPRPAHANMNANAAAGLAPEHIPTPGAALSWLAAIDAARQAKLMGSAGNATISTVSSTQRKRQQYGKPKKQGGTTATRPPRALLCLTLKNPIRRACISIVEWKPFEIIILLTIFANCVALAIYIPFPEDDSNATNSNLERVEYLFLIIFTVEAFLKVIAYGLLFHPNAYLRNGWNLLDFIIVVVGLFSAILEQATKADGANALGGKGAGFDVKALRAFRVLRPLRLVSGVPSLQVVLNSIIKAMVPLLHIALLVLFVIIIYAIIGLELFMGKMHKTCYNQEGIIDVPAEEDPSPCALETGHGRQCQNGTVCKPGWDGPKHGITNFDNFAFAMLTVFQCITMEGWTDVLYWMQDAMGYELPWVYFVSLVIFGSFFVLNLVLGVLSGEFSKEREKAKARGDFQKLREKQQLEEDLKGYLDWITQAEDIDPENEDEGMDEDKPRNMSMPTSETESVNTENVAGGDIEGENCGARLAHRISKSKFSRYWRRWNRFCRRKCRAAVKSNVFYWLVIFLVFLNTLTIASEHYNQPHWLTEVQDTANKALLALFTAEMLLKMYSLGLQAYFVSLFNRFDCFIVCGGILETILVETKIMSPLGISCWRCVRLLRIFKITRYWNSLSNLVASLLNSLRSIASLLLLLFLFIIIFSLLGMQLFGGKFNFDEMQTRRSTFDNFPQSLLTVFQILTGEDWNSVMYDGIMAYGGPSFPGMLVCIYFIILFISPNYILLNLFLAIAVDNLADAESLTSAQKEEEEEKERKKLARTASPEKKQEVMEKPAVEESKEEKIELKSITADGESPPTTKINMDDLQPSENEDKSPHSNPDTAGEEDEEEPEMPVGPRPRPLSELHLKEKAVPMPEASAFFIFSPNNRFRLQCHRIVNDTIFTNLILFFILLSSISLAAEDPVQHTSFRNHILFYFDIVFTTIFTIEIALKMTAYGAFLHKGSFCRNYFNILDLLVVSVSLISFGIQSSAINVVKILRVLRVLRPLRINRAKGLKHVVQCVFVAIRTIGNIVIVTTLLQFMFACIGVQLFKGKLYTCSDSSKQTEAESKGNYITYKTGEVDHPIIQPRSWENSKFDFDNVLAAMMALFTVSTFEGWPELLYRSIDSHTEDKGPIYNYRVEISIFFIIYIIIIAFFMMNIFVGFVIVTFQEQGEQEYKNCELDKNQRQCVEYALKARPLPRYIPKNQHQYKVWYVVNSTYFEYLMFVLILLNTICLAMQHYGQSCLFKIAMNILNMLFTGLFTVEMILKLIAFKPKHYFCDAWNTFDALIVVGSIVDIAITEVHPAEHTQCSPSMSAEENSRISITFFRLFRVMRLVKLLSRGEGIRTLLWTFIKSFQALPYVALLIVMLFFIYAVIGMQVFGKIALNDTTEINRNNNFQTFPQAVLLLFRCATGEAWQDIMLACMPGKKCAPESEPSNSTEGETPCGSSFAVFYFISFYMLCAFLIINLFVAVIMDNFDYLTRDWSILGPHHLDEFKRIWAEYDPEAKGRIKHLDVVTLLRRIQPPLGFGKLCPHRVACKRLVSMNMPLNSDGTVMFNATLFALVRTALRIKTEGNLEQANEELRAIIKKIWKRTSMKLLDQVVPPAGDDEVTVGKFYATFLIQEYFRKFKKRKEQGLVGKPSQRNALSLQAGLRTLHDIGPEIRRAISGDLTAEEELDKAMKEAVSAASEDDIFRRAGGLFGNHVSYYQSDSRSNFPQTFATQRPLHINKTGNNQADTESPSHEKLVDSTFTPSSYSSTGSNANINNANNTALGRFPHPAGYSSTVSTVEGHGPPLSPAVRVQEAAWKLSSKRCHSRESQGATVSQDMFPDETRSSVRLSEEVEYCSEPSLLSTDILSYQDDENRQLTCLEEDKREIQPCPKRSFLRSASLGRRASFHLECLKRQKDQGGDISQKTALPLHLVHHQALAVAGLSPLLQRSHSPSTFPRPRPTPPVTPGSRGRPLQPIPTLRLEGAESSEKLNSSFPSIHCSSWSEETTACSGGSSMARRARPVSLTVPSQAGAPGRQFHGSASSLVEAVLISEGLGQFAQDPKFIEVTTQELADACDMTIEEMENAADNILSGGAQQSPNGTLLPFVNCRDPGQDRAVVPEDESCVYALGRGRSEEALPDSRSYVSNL
T1 sequence (P54290 25-945 partner limits assumed, other chains not shown): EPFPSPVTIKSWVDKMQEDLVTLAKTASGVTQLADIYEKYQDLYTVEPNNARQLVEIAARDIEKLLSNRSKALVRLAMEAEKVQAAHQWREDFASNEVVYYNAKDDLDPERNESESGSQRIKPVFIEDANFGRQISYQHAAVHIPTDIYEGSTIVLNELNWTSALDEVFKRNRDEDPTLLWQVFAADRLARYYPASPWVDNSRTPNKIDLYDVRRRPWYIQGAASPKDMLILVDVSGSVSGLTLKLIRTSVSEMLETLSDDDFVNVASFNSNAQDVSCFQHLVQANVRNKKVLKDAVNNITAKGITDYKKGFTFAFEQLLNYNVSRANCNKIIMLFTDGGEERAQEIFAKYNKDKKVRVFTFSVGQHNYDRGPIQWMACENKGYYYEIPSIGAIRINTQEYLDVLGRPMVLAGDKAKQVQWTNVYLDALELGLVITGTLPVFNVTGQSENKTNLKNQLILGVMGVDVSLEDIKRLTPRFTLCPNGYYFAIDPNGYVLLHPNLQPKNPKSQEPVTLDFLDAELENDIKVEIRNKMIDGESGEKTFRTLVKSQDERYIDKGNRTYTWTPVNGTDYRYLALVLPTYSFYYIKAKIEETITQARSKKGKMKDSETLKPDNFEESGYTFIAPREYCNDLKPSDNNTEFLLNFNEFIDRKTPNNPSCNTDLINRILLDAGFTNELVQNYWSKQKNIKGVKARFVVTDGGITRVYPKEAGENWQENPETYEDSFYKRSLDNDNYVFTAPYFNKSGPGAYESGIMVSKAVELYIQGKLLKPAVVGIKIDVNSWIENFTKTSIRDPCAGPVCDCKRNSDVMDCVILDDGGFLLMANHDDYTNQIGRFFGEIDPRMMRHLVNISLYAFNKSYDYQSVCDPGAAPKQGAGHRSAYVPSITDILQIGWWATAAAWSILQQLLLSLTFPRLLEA
T1 sequence (P54290 946-1091 partner limits assumed, other chains not shown): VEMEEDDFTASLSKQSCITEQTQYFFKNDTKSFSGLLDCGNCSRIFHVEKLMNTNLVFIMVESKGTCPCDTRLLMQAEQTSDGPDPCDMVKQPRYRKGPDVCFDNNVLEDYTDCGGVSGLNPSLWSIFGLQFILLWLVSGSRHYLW

For c1ccc([C@H]2CCC[C@H]2N=C2CCCCCCCCCCCN2)cc1 (relative stereo) [Test Compound 3, 2-[(cis-2-phenylcyclopentyl)imino]azacyclotridecane], the “inhibition of stimulated adenylate cyclase activity” value (adenylate cyclase) is given as “inhibit stimulated adenylate cyclase activity in a number of tissues”, the “reversal of inotropic and chronotropic effects by calcium” value ([1]; administration of calcium) is given as “reversed by the administration of calcium” and the “inotropic and chronotropic effects” value [1] is given as “negative inotropic and chronotropic effects”. For the same compound, the “effect on calcium currents” value (calcium currents) was “selectively reduced calcium currents with a potency similar to diltiazem”, the activity at 1 µM ([2]; 25° C.) was 112 ± 2% and the activity at 0.1 µM ([2]; 25° C.) was 102 ± 1%. The activity at 1 µM ([2]; 37° C.) was 165 ± 13%, the activity at 0.1 µM ([2]; 37° C.) was 141 ± 8% and the “effect on [3H]nitrendipine binding” value [3] was “enhanced [3H]nitrendipine binding in rat cerebral cortical and cardiac homogenates in a similar manner to diltiazem”. The “mean pA2 value (95% confidence interval), Schild plot” value [4] was 6.66 (6.31-7.44), the “mean slope (±S.D.) of Schild plot” value [4] was 0.89 (0.16) and the IC50 ([5]; 25° C.) was 280 ± 30 nM. For the same compound, the IC50 ([5]; 37° C.) was 403 ± 77 nM and the pKi ([5]; Table 1, displacement of 3H diltiazem, rat brain membranes, 25° C., n = 3, Cheng & Prusoff) was 6.41.
